Results on six compounds are retold here after patent US20240051930A1, “HETEROAROMATIC SPERMIDINE ANALOGUES AND THEIR ANTICANCER ACTIVITY” (FLORATEK PHARMA S.A., priority 2021, published 2024).

Format in all cases: cell-based
One assay has as its system H118MG cells. As to the kind of experiment: CellTiter-Glow cell viability, brain carcinoma cells H118MG. The note with it: 72 h, read-out: growth inhibition of brain carcinoma cells H118MG. As for the experimental part:
(§1) Antitumor activity of the compounds and cisplatin as a positive control was assessed by using CellTiter-Glow® Luminescent Cell Viability assay (Promega #G7572) according to the manufacturer's instructions. The compounds were tested at 2 concentrations, 2 and 20 μM, in triplicate well conditions.
(§2) Tumor cells were grown at 37° C. in a humidified atmosphere with 5% CO2 in RPMI 1640 or DMEM medium, supplemented with 10% (v/v) fetal calf serum and 50 μg/ml gentamicin for up to 20 passages, and were passaged once or twice weekly. Cells were harvested using TrypLE or PBS buffer containing 1 mM EDTA, and the percentage of viable cells is determined using a cell counter.
(§3) Cells were harvested from exponential phase cultures, counted and plated in 96 well flat-bottom microtiter plates at a cell density depending on the cell line's growth rate (4,000-20,000 cells/well depending on the cell line's growth rate, up to 60,000 for hematological cancer cell lines) in RPMI 1640 or DMEM medium supplemented with 10% (v/v) fetal calf serum and 50 μg/ml gentamicin (140 μl/well). […]
(§4) Compounds were serially diluted in DMSO, transferred in cell culture medium, and added to the assay plates. […] Viability of cells was quantified by CellTiter-Glow® Luminescent Cell Viability assay (Promega). Luminescence was measured with the microplate luminometer (EnVision Multi Label Reader).
A general note: In ATP-based viability assays light output follows the ATP content of the culture.

The next assay deals with SK-N-SH cells. The assay is described as follows: CellTiter-Glow cell viability, brain carcinoma SK-N-SH. To be noted: Homo sapiens, 72 h, read-out: % Inh @2 μM SK-N-SH. As for the experimental part:
as §1, §2
(§5) Cells were harvested from exponential phase cultures, counted and plated in 96 well flat-bottom microtiter plates at a cell density depending on the cell line's growth rate (4,000-20,000 cells/well depending on the cell line's growth rate, up to 60,000 for hematological cancer cell lines) in RPMI 1640 or DMEM medium supplemented with 10% (v/v) fetal calf serum and 50 μg/ml gentamicin (140 μl/well). Cultures were incubated at 37° C. and 5% CO2 in a humidified atmosphere. After 24 h, 10 μl of test compounds or control medium are added and left on the cells for another 72 h.
(§6) Compounds were serially diluted in DMSO, transferred in cell culture medium, and added to the assay plates. The DMSO concentration was kept constant at <0.2% v/v across the assay plate. Viability of cells was quantified by CellTiter-Glow® Luminescent Cell Viability assay (Promega). Luminescence was measured with the microplate luminometer (EnVision Multi Label Reader).

The subject of a further assay is HCT116 cells. As to the kind of experiment: CellTiter-Glow cell viability, colon carcinoma HCT116. To be noted: Homo sapiens, HCT-116, 72 h, read-out: % Inh @2 μM HCT116. As for the experimental part:
as §1, §2, §3, §4

Another assay has as its system K562 cells. As to the kind of experiment: CellTiter-Glow cell viability, leukemia K562. To be noted: Homo sapiens, 72 h, read-out: % Inh @2 μM K562. How it is done:
as §1, §2, §3, §4

The test system of another assay is DMS114 cells. As to the kind of experiment: CellTiter-Glow cell viability, lung carcinoma DMS114. To be noted: Homo sapiens, DMS-114, 72 h, read-out: growth inhibition of lung carcinoma cells DMS114. As for the experimental part:
as §1, §2, §3, §4

For another assay, the system named is NCI-H292 cells. As to the kind of experiment: CellTiter-Glow cell viability, lung carcinoma NCI-H292. The note with it: Homo sapiens, 72 h, read-out: % Inh @2 μM NCI-H292. How it is done: as §1, §2, §5, §6
For a further assay, the system named is NAWALMA cells. The assay is described as follows: CellTiter-Glow cell viability, lymphoma NAWALMA. To be noted: 72 h, read-out: % Inh @2 μM NAWALMA. As for the experimental part:
as §1, §2, §5, §6

The next assay has as its system Daudi cells. As to the kind of experiment: CellTiter-Glow cell viability, lymphoma Daudi. The note with it: Homo sapiens, 72 h, read-out: % Inh @2 μM Daudi. As for the experimental part: as §1, §2, §5, §6
For another assay, the system named is A673 cells. The assay is described as follows: CellTiter-Glow cell viability, Ewings sarcoma A673. The note with it: Homo sapiens, 72 h, read-out: % Inh @2 μM A673. As for the experimental part: as §1, §2, §5, §6
Another assay relates to MeWo cell line. The assay is described as follows: CellTiter-Glow cell viability, melanoma MeWo. The note with it: Homo sapiens, 72 h, read-out: growth inhibition of MeWo cell line. As for the experimental part: as §1, §2, §3, §4
The next assay deals with SK-Mel-5 cell line. As to the kind of experiment: CellTiter-Glow cell viability, melanoma SK-Mel-5. To be noted: for inhibition at 2 µM: Homo sapiens, SK-MEL-5, 72 h, read-out: % Inh @2 μM SK-Mel-5. How it is done:
as §1, §2, §5, §6

In another assay the test system is A2058 cells. The assay is described as follows: CellTiter-Glow cell viability, melanoma A2058. The note with it: for inhibition at 2 µM: Homo sapiens, A2058, 72 h, read-out: % Inh @2 μM A2058. As for the experimental part: as §1, §2, §5, §6
The subject of a further assay is A375 cells. The assay is described as follows: CellTiter-Glow cell viability, melanoma A375. The note with it: for inhibition at 2 µM: Homo sapiens, A-375, 72 h, read-out: % Inh @2 μM A375. As for the experimental part: as §1, §2, §5, §6
The next assay has as its system SH-SY-5Y cells. The assay is described as follows: CellTiter-Glow cell viability, brain carcinoma SH-SY-5Y. To be noted: Homo sapiens, SH-SY5Y, 72 h, read-out: % Inh @2 μM SH-SY-5Y. How it is done:
as §1, §2, §3, §4

For the next assay, the system named is U937 cell line. As to the kind of experiment: CellTiter-Glow cell viability, leukemia U937. To be noted: Homo sapiens, U-937, 72 h, read-out: growth inhibition of U937 cell line. As for the experimental part:
as §1, §2, §3, §4

Consider `COc1c(O)ccc2c(=O)c(O)c(-c3ccc(N(C)CCCCN(C)CCC4CCN(Cc5ccccc5)CC4)cc3)oc12` [SND437], for which the inhibition at 2 µM in the assay on H118MG cells amounted to 97.6%; in the assay on SK-N-SH cells, 96.4%; in the assay with HCT116 cells, 83.7%; in the assay with K562 cells it was 65.3%; in the assay on DMS114 cells, 98%; in the assay on NCI-H292 cells it was 71.6%. The inhibition at 2 µM with NAWALMA cells amounted to 80.8%; with Daudi cells, 59.4%; in the assay on A673 cells, 99.6%; in the assay on MeWo cell line it was 93.2%; in the assay on SK-Mel-5 cell line, 99.7%; with A2058 cells, 97.3%. In addition, in the assay on A375 cells, the inhibition at 2 µM worked out at 69.5%.
For `COc1c(O)ccc2c(=O)c(O)c(-c3ccc(N(C)CCCCN(C)CCN4CCN(Cc5ccccc5)CC4)cc3)oc12` [SND438], the inhibition at 2 µM is 53.5% in the assay with SK-N-SH cells; 51.9% in the assay on NCI-H292 cells; 65.3% in the assay on NAWALMA cells; 50% in the assay with Daudi cells; 55.6% with A673 cells; 61.1% with SK-Mel-5 cell line. The results for the inhibition at 2 µM with A2058 cells and with A375 cells were 72.1% and 55.5%, respectively. Besides, the “% Inh @2 μM SK-Mel-5” value in the assay with SK-Mel-5 cell line (72 h) stood at 50.7%. In the assay on A2058 cells (72 h), the “% Inh @2 μM A2058” value is listed as 78.2%. Also, in the assay on A375 cells (72 h), the “% Inh @2 μM A375” value turned out to be 60.8%.
With `COc1c(O)ccc2c(=O)c(O)c(-c3ccc(N(C)CCCCN(C)CCCN4CCCCC4)cc3)oc12` [SND439], the inhibition at 2 µM amounted to 57.5% in the assay with SK-N-SH cells; 62.6% in the assay on NCI-H292 cells; 73.4% in the assay with NAWALMA cells; 57.4% with Daudi cells; 80.8% with A673 cells.
As to `COc1c(O)ccc2c(=O)c(O)c(-c3ccc(N(C)CCCCNCCCNCCCCN)cc3)oc12` [SND445], the inhibition at 2 µM with A673 cells was found to be 61.8%.
In the case of `COc1c(O)ccc2c(=O)c(O)c(-c3ccc(N(C)CCCCNCCCN)cc3)oc12` [SND446], the inhibition at 2 µM in the assay with SH-SY-5Y cells stood at 55.8%; with U937 cell line it was 58%; in the assay on NAWALMA cells it was 75.5%; in the assay on Daudi cells it was 82%; with SK-Mel-5 cell line it was 56.5%.
Take `COc1c(-c2ccc(N(C)CCCCN(C)CCCN3CCCCC3)cc2)oc2c(OC)c(O)ccc2c1=O` [SND459]: the inhibition at 2 µM with A673 cells came out at 63.5%.
